ChEMBL document CHEMBL5465560, “Selectivity Literature for EUbOPEN Chemogenomic Library” (2024)

What was measured:
[1] = target: T1, Serine/threonine-protein kinase ULK3 (Homo sapiens) (UniProt Q6PHR2); assay: Selectivity interaction (Kinase panel (DSF assay)) EUB0001559a ULK3
T1 sequence (whole entry): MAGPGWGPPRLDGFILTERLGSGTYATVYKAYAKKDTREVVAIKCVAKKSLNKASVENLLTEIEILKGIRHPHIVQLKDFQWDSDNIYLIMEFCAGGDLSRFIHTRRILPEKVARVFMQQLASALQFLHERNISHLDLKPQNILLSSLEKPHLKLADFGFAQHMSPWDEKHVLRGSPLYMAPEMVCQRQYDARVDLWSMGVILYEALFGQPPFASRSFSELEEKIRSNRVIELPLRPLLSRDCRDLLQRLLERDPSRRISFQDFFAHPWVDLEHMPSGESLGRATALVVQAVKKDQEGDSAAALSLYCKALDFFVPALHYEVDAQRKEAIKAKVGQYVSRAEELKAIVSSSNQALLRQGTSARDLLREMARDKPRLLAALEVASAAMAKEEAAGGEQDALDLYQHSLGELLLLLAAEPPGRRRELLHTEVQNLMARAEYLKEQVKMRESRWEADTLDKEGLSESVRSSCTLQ

[2] = target: Mitogen-activated protein kinase 14 (Homo sapiens, UniProt Q16539); assay: Selectivity interaction (Kinase panel (KiNativ target engagement assay in Jurkat cells)) EUB0001635a MAPK14; type: cell-based; settings: Selectivity number of off-targets 0.0, Selectivity number of targets 233.0, Source Knowledge https://www.sciencedirect.com/science/article/pii/S2451945619300674?via%3Dihub, at 1 µM
Sequence of Mitogen-activated protein kinase 14 (Q16539 whole entry): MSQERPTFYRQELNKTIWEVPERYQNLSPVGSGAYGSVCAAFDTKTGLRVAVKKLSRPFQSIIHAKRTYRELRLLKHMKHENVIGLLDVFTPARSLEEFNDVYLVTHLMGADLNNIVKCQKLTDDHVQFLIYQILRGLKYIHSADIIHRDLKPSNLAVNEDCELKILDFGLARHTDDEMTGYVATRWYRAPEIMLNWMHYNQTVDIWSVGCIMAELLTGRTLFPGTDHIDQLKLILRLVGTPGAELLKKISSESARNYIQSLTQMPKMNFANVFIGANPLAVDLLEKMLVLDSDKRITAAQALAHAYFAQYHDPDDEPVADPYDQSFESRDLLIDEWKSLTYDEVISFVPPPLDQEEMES

[3] = target: T2, Serine/threonine-protein kinase LATS1 (Homo sapiens) (UniProt O95835); assay: Selectivity interaction (ActivX KiNativ screen (kinase selectivity in THP-1 cell lysates)) EUB0000639a LATS1; type: subcellular; settings: lysate, at 0.01 µM
T2 sequence (whole entry): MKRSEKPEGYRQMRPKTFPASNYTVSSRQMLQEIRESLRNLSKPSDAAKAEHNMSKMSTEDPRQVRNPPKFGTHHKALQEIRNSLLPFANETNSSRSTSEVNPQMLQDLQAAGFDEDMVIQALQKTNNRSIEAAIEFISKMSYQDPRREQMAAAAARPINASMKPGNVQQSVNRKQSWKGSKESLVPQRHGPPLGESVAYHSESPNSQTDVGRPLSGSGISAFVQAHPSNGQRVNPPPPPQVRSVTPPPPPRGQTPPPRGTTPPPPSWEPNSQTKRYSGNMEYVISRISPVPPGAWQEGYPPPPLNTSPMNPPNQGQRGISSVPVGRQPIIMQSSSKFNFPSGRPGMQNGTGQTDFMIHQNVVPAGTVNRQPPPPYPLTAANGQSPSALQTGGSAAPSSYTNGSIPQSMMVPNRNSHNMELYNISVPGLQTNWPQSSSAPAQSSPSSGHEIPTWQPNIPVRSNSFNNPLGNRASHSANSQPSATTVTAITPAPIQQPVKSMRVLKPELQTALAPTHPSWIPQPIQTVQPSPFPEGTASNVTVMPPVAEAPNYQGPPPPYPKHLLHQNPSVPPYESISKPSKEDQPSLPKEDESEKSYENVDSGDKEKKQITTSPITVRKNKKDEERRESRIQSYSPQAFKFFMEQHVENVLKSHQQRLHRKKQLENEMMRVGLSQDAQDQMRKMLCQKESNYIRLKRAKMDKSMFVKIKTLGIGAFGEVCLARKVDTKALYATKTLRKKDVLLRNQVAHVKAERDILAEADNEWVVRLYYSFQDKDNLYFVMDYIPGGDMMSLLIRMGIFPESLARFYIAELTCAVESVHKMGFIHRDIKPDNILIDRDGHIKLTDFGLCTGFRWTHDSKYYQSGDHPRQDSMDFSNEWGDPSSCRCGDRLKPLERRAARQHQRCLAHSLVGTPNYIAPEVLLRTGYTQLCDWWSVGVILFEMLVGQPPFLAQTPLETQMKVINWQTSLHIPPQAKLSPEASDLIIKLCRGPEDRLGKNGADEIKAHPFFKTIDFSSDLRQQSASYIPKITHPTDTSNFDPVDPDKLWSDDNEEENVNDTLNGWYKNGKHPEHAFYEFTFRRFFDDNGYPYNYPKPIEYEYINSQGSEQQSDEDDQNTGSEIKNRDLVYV

[4] = target: Myosin light chain kinase 2, skeletal/cardiac muscle (Homo sapiens) (UniProt Q9H1R3); assay: Selectivity interaction (KinomeScan (DiscoverX)) EUB0000607a MYLK2; settings: at 10 µM
Sequence of Myosin light chain kinase 2, skeletal/cardiac muscle (Homo sapiens) (Q9H1R3 whole entry): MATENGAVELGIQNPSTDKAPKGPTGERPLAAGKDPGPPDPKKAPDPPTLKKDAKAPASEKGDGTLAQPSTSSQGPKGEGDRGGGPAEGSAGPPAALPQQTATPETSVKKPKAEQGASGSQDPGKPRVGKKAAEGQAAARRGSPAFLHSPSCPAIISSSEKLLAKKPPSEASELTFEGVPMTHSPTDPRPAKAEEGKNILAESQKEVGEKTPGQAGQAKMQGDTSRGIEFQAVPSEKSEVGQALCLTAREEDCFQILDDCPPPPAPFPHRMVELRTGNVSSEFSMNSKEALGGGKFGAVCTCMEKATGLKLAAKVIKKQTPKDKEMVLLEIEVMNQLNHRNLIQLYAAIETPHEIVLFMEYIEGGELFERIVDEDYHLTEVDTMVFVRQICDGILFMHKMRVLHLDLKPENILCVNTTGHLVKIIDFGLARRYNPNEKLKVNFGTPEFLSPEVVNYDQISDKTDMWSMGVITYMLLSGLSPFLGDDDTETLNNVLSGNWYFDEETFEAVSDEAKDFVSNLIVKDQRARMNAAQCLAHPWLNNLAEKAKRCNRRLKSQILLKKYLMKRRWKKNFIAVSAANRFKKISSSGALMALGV

[5] = target: MAP kinase-activated protein kinase 2 (Homo sapiens, UniProt P49137); assay: Selectivity interaction (KinomeScan (DiscoverX)) EUB0001049a MAPKAPK2; settings: at 1 µM
Sequence of MAP kinase-activated protein kinase 2 (P49137 whole entry, looked up): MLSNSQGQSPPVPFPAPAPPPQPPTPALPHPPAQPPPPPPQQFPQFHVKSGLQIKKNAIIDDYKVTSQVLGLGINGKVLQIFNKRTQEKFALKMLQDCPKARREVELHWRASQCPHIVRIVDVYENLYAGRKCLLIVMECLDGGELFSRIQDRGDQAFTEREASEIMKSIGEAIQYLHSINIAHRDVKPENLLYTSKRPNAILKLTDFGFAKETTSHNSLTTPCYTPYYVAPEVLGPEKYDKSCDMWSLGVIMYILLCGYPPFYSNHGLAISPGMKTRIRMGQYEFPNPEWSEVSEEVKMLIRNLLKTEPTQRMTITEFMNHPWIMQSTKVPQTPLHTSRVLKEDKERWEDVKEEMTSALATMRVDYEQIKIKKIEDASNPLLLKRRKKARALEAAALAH

CN(C(=O)c1cnn2cccnc12)c1cc2c(cc1N1CCOCC1)C(=O)N(C[C@@H](F)C(C)(C)O)C2
dTM [1]: -0.5 K

C=CC(=O)Nc1ccc(C(=O)Nc2[nH]nc3c2CN(C(=O)N[C@H](CN(C)C)c2ccccc2)C3(C)C)cc1
% of engagement [2]: -12.8%

CC[C@@H]1[C@H](F)C(=O)N[C@@H]1COc1nccc2cc(C(N)=O)c(OC)cc12 [ZIMLOVISERTIB]
% of inhibition [3]: 15.8%

CNC(=O)Nc1ccc(-c2nc(N3CC4CCC(C3)O4)c3cnn(C4CCC5(CC4)OCCO5)c3n2)cc1
% of control [4]: 100%

COc1cc(Nc2nc(C)cc(-c3cnn4nc(OC)ccc34)n2)cc(C(F)(F)F)c1
% of control [5]: 52%
